According to ChEMBL document CHEMBL5442219:

Assays:
Details in all cases: Compound concentration 10 µM
[1] = target: T1, Alpha-1B adrenergic receptor (Homo sapiens) (UniProt P35368)
T1 sequence (whole entry): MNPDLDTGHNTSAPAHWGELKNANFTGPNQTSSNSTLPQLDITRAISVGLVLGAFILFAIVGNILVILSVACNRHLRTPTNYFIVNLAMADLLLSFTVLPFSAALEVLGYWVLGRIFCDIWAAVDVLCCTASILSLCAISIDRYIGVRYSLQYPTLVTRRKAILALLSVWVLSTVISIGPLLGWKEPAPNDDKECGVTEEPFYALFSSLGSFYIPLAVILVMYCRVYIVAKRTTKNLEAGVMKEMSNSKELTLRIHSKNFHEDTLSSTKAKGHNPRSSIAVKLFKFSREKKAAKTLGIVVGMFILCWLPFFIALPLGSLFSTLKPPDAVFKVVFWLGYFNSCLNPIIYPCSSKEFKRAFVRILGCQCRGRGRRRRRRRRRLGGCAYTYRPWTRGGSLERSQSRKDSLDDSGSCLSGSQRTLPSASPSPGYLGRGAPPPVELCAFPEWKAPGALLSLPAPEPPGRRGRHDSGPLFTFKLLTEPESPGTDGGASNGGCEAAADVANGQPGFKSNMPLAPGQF
Description: PDSP Primary Binding target: ADRA1B - Compounds are tested at 10 uM concentration, plate are incubated at room temperature in the dark for 90 minutes. Reaction are stopped by vacuum filtration onto 0.3% polyethyleneimine soaked filter mats using Filtermate harvester. Scintilation cocktail is then melted onto microwave-dried filters on a hot plate and the radio activity is counted in Microbia counter.

[2] = target: T2, Alpha-1D adrenergic receptor (Homo sapiens) (UniProt P25100)
T2 sequence (whole entry): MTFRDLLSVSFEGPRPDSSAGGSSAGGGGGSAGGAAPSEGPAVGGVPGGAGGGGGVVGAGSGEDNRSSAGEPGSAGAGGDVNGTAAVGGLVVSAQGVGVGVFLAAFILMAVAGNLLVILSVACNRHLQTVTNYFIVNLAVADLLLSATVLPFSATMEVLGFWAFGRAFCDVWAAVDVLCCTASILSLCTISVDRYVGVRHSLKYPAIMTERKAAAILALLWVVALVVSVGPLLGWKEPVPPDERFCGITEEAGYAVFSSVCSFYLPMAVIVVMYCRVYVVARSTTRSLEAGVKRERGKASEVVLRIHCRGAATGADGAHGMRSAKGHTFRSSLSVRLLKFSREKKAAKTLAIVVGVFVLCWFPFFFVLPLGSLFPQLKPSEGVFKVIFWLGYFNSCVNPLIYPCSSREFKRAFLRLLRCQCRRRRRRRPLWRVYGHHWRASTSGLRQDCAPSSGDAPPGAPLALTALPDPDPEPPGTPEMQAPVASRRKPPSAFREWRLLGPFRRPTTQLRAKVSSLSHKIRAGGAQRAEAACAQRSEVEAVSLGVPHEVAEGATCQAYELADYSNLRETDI
Description: PDSP Primary Binding target: ADRA1D - Compounds are tested at 10 uM concentration, plate are incubated at room temperature in the dark for 90 minutes. Reaction are stopped by vacuum filtration onto 0.3% polyethyleneimine soaked filter mats using Filtermate harvester. Scintilation cocktail is then melted onto microwave-dried filters on a hot plate and the radio activity is counted in Microbia counter.

[3] = target: T3, Alpha-2C adrenergic receptor (Homo sapiens) (UniProt P18825)
T3 sequence (whole entry): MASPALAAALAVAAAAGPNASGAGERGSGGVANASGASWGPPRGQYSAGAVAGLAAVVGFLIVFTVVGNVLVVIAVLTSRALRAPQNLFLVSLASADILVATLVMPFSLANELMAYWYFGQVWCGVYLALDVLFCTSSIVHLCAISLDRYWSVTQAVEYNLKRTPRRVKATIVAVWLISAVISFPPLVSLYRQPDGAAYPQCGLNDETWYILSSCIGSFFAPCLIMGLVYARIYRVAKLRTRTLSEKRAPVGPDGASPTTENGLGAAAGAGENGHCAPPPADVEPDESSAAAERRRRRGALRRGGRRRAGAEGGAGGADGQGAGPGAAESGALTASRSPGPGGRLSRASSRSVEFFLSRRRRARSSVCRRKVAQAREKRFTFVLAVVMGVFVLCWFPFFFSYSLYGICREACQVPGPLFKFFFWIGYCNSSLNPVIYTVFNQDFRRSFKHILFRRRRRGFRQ
Description: PDSP Primary Binding target: ADRA2C - Compounds are tested at 10 uM concentration, plate are incubated at room temperature in the dark for 90 minutes. Reaction are stopped by vacuum filtration onto 0.3% polyethyleneimine soaked filter mats using Filtermate harvester. Scintilation cocktail is then melted onto microwave-dried filters on a hot plate and the radio activity is counted in Microbia counter.

[4] = target: T4, 5-hydroxytryptamine receptor 1A (Homo sapiens) (UniProt P08908)
T4 sequence (whole entry): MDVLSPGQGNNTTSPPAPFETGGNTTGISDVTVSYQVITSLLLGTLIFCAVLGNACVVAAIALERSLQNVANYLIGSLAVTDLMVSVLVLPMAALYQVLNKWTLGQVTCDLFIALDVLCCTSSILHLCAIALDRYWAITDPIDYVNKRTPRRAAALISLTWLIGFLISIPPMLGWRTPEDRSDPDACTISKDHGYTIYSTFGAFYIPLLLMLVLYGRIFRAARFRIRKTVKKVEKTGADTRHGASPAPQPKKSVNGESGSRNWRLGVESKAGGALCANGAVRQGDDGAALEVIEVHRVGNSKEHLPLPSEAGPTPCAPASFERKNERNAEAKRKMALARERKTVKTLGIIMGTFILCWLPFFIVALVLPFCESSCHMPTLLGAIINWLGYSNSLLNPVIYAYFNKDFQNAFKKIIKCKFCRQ
Description: PDSP Primary Binding target: HTR1A - Compounds are tested at 10 uM concentration, plate are incubated at room temperature in the dark for 90 minutes. Reaction are stopped by vacuum filtration onto 0.3% polyethyleneimine soaked filter mats using Filtermate harvester. Scintilation cocktail is then melted onto microwave-dried filters on a hot plate and the radio activity is counted in Microbia counter.

[5] = target: 5-hydroxytryptamine receptor 2B (Homo sapiens) (UniProt P41595)
5-hydroxytryptamine receptor 2B (Homo sapiens), sequence (P41595 whole entry): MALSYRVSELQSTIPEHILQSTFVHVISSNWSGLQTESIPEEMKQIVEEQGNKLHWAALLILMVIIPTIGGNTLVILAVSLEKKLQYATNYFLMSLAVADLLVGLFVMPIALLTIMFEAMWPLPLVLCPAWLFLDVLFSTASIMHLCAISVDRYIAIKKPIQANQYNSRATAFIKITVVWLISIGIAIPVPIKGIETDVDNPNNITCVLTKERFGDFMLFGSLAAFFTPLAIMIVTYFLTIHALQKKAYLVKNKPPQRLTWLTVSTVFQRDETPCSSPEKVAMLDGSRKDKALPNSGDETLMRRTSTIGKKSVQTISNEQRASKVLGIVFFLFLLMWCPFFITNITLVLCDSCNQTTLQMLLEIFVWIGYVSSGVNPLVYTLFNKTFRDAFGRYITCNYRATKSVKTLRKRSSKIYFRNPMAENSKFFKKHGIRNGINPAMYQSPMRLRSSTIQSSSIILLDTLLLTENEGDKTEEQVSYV
Description: PDSP Primary Binding target: HTR2B - Compounds are tested at 10 uM concentration, plate are incubated at room temperature in the dark for 90 minutes. Reaction are stopped by vacuum filtration onto 0.3% polyethyleneimine soaked filter mats using Filtermate harvester. Scintilation cocktail is then melted onto microwave-dried filters on a hot plate and the radio activity is counted in Microbia counter.

[6] = target: T5, 5-hydroxytryptamine receptor 2C (Homo sapiens) (UniProt P28335)
T5 sequence (whole entry): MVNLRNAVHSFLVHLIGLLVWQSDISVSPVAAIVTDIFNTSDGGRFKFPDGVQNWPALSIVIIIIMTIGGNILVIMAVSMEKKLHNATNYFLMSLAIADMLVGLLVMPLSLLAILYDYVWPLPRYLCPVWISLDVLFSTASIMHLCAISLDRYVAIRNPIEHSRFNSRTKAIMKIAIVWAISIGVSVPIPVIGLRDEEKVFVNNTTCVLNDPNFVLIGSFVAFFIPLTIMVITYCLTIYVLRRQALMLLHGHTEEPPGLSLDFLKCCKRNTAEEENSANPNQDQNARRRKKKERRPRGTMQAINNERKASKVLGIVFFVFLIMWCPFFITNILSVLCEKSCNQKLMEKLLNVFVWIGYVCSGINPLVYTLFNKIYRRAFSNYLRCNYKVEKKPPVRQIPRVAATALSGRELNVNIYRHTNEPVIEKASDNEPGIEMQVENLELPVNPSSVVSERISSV
Description: PDSP Primary Binding target: HTR2C - Compounds are tested at 10 uM concentration, plate are incubated at room temperature in the dark for 90 minutes. Reaction are stopped by vacuum filtration onto 0.3% polyethyleneimine soaked filter mats using Filtermate harvester. Scintilation cocktail is then melted onto microwave-dried filters on a hot plate and the radio activity is counted in Microbia counter.

[7] = target: Kappa-type opioid receptor (Homo sapiens) (UniProt P41145)
Kappa-type opioid receptor (Homo sapiens), sequence (P41145 whole entry): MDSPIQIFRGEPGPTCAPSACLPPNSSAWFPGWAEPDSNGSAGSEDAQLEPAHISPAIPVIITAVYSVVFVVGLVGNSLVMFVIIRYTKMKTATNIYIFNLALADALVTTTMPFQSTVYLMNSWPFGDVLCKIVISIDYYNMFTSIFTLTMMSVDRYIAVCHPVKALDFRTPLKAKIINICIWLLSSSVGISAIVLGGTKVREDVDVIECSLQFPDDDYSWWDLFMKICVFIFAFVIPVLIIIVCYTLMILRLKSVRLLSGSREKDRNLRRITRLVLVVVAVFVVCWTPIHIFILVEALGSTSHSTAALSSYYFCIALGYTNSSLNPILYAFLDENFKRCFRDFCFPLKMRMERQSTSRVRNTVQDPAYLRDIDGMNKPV
Description: PDSP Primary Binding target: OPRK1 - Compounds are tested at 10 uM concentration, plate are incubated at room temperature in the dark for 90 minutes. Reaction are stopped by vacuum filtration onto 0.3% polyethyleneimine soaked filter mats using Filtermate harvester. Scintilation cocktail is then melted onto microwave-dried filters on a hot plate and the radio activity is counted in Microbia counter.

[8] = target: Sodium-dependent dopamine transporter (Homo sapiens) (UniProt Q01959)
Sodium-dependent dopamine transporter (Homo sapiens), sequence (Q01959 whole entry): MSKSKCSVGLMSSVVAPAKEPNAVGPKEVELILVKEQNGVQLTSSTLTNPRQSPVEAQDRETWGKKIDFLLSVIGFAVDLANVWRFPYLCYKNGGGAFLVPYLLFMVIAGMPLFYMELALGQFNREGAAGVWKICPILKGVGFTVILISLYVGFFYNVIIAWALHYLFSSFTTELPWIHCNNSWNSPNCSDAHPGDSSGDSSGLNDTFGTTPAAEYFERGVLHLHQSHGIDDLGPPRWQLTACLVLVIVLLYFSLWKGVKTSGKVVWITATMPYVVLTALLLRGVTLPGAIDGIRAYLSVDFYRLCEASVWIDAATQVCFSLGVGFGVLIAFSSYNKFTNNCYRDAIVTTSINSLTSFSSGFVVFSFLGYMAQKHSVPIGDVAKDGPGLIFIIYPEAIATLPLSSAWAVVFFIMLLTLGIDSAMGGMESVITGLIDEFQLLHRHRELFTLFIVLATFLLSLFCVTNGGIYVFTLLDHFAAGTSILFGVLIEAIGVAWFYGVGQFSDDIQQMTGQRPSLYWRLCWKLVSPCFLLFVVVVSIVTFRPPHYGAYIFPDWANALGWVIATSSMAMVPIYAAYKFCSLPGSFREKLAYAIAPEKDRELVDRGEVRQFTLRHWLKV
Description: PDSP Primary Binding target: SLC6A3 - Compounds are tested at 10 uM concentration, plate are incubated at room temperature in the dark for 90 minutes. Reaction are stopped by vacuum filtration onto 0.3% polyethyleneimine soaked filter mats using Filtermate harvester. Scintilation cocktail is then melted onto microwave-dried filters on a hot plate and the radio activity is counted in Microbia counter.

[9] = target: Sodium-dependent serotonin transporter (Homo sapiens) (UniProt P31645)
Sodium-dependent serotonin transporter (Homo sapiens), sequence (P31645 whole entry, looked up): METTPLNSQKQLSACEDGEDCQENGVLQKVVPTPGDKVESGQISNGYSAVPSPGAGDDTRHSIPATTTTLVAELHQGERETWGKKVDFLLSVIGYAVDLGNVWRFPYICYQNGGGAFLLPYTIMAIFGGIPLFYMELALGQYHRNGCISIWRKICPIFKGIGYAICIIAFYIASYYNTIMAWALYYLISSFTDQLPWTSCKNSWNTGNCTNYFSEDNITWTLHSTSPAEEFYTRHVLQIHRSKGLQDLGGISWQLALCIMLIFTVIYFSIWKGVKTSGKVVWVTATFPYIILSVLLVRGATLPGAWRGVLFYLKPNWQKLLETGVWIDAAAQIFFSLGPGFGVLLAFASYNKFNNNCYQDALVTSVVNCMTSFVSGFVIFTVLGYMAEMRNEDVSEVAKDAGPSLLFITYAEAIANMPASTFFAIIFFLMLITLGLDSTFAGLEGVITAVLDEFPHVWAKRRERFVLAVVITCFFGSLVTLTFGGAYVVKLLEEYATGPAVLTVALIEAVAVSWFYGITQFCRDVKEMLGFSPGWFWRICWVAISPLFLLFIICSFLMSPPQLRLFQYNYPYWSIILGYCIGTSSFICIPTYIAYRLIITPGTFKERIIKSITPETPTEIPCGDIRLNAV
Description: PDSP Primary Binding target: SLC6A4 - Compounds are tested at 10 uM concentration, plate are incubated at room temperature in the dark for 90 minutes. Reaction are stopped by vacuum filtration onto 0.3% polyethyleneimine soaked filter mats using Filtermate harvester. Scintilation cocktail is then melted onto microwave-dried filters on a hot plate and the radio activity is counted in Microbia counter.

[10] = target: Translocator protein (Homo sapiens) (UniProt P30536)
Translocator protein (Homo sapiens), sequence (P30536 whole entry): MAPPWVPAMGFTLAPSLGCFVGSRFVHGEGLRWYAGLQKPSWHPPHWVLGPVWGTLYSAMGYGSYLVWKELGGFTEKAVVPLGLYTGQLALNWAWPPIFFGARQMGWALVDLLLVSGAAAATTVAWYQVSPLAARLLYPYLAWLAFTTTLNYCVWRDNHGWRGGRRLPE
Description: PDSP Primary Binding target: TSPO - Compounds are tested at 10 uM concentration, plate are incubated at room temperature in the dark for 90 minutes. Reaction are stopped by vacuum filtration onto 0.3% polyethyleneimine soaked filter mats using Filtermate harvester. Scintilation cocktail is then melted onto microwave-dried filters on a hot plate and the radio activity is counted in Microbia counter.

Row | Compound | inhibition [1] [%] | inhibition [2] [%] | inhibition [3] [%] | inhibition [4] [%] | inhibition [5] [%] | inhibition [6] [%] | inhibition [7] [%] | inhibition [8] [%] | inhibition [9] [%] | inhibition [10] [%]
1 | Cc1c(P(=S)(c2ccccc2)c2ccccc2)n2ccccc2[n+]1C/C=C/c1ccccc1 | 39.9 | 8.81 | 101 | 54.3 | 8.18 | 25.7 | 101 | 83.2 | 29.7 | 6.66
2 | CN(C)C(=O)N[C@H]1CC[C@H](CCN2CCN(c3cccc(Cl)c3Cl)CC2)CC1 | 83.4 | 89.4 | 98 | 102 | 99 | 97.3 | 5.62 | 52.5 | 55 | 29
3 | CN1CCN(c2ccc(Nc3c4ccccc4nc4ccccc34)cc2)CC1 | 53.5 | 59.2 | 105 | 8.52 | 36.1 | 16.7 | 38.7 | 62.7 | 87.7 | 6
4 | Cc1cc(NC(=O)NCCN2CCC(O)(Cc3ccccc3)CC2)c2ccccc2n1 | 26.1 | 16.2 | 37.3 | -6.82 | 62.2 | 92.3 | 31.9 | 43.9 | 66.3 | 44.3
5 | OCc1cc(C(O)CNCCCCCCOCCCCc2ccccc2)ccc1O (configuration not stated) | 47.7 | 65.8 | 45.6 | 27.8 | 90.4 | 60.6 | 9.07 | 86.5 | 91.4 | -0.39
6 | Cc1ccccc1N1CCN(S(=O)(=O)C[C@]23CC[C@H](C[C@@H]2NC(=O)[C@@H](N)CCS(C)(=O)=O)C3(C)C)CC1 | -3.68 | 4.26 | 14.7 |  | 31.7 | -4.87 | 98.5 | 30.4 | -9.42 | -1.05
7 | CCc1nn(CCCN2CCN(c3cccc(Cl)c3)CC2)c(=O)n1CCOc1ccccc1 | 97.5 | 83.9 | 95.3 | 42.6 | 79.6 | 102 | 49.2 | 78.7 | 84.9 | 64.2
8 | NC(=O)[C@@H]1CCCN1C(=O)[C@H](Cc1c[nH]cn1)NC(=O)[C@@H]1CCC(=O)N1 | -3.89 | -8.73 | 49.8 |  | 18.6 | -0.43 | 6.58 | 40.9 | 5.26 | 73.2
9 | Cc1nc(-c2ccc(C(F)(F)F)cc2)sc1COc1ccc([C@H](CC(=O)O)c2ccon2)cc1 | 69 | -8.39 | 2.28 |  | 0.53 | -6.07 | 6.61 | 51.1 | 21.4 | 11.6
